Results from US20080241862A1, “PROPIONYL AND BUTYRYL LYSINE MODIFICATIONS IN PROTEINS” (priority 2007, published 2008).

Test system: K^Buty of H3 and H4 in HeLa cells
Test: K^Buty level in histones of HeLa cells treated with HDAC inhibitors (immunoblot)
Type: cell-based
Conditions: anti-K^Buty immunoblot
Procedure: FIGS. 17A-C. […] Four peptide libraries were spotted on nitrocellulose membrane with four dilutions and were used to assay the antibody's specificity. The 14-residue randomized peptide libraries have a fixed residue at 8th position, K^Ac in lane 1, K^Prop in lane 2, K^Buty in lane 3, and K in lane 4. Dot-blot analysis was used to test the specificity of the antibody. To perform the dot-blot analysis, 2 ul of peptide diluted in distilled water to different concentrations was spotted on a strip of nitrocellulose membrane and allowed to air dry. The membrane was then assayed in a manner similar to that used in the immunoblot analysis. […] Lane 3 and 4 are WB controls using anti-H3 and anti-H4 antibodies, respectively. For antibody competition assay, 200 ng of anti-K^Buty antibody was incubated with 1 ug of a peptide library with a fixed non-modified lysine (lane 1) or with a fixed butyryllysine (lane 2), respectively. After incubation for 3 hour at room temperature, the antibody was subjected to immunoblot against core histones derived from Hela cells. Histone H3 and H4 antibodies were used to indicate the positions of H3 or H4 (lane 3 and lane 4). […] The core histones were prepared from HeLa cells treated with nothing, or trichostatin A (TSA), or sodium butyrate (NaBu), as indicated. […]

CCCC(=O)[O-].[Na+] [sodium butyrate]
K^Buty level (20 mM for 6 hours): dramatically induced

CC(/C=C/C(=O)NO)=C\[C@@H](C)C(=O)c1ccc(N(C)C)cc1 [trichostatin A]
K^Buty level (10 uM, 6 Hours): dramatically induced
